{
  "source": "ChEMBL document CHEMBL1148317",
  "about": "“A medicinal chemistry perspective on artemisinin and related endoperoxides” (J Med Chem, 2004)",
  "key": {"Plasmodium falciparum [1]": {"tested_on": "Plasmodium falciparum", "test": "In vitro antimalarial activity for Plasmodium falciparum", "format": "functional, organism-based"}, "Mus musculus [2]": {"tested_on": "Mus musculus", "test": "In vivo antimalarial activity to reduce parasitaemia in mice (Mus musculus) infected with Plasmodium berghei by 50% of the control", "format": "functional"}, "[3]": {"test": "Half life of compound was determined", "format": "ADME"}, "Mus musculus [4]": {"tested_on": "Mus musculus", "test": "In vivo antimalarial activity to reduce parasitaemia in mice (Mus musculus) infected with Plasmodium berghei by 50% of the control; range 1 mg/kg to 3 mg/kg", "format": "functional"}, "Plasmodium falciparum [5]": {"tested_on": "Plasmodium falciparum", "test": "In vitro antimalarial activity for Plasmodium falciparum; range 3 nM to 10 nM", "format": "functional, organism-based"}, "Plasmodium falciparum [6]": {"tested_on": "Plasmodium falciparum", "test": "Inhibitory concentration against Plasmodium falciparum"}, "Plasmodium falciparum [7]": {"tested_on": "Plasmodium falciparum", "test": "Inhibitory concentration against Plasmodium falciparum", "remark": "listed apart in the source"}},
  "data": [
    {"smiles": "Clc1ccc2c(NCCNC3CCC4(CC3)OOC3(O4)C4CC5CC(C4)CC3C5)ccnc2c1", "note": "(stereo unspecified)", "values": [
      {"measurement": "IC50", "setting": "Plasmodium falciparum [1]", "result": 2.5, "unit": "nM"}
    ]},
    {"smiles": "CC1(OCc2ccccc2)CCC2C[C@@H]1OO[C@]2(C)CS(=O)(=O)c1ccccc1", "note": "(stereo partly specified)", "values": [
      {"measurement": "IC50", "setting": "Plasmodium falciparum [1]", "result": 9.4, "unit": "nM"},
      {"measurement": "ED50", "setting": "Mus musculus [2]", "result": 0.43, "unit": "mg/kg"}
    ]},
    {"smiles": "Fc1ccc(C2=C[C@H]3OC4(CCCC4)OO[C@@]3(c3ccc(F)cc3)C2)cc1", "values": [
      {"measurement": "IC50", "setting": "Plasmodium falciparum [1]", "result": 4, "unit": "nM"},
      {"measurement": "ED50", "setting": "Mus musculus [2]", "result": 2.7, "unit": "mg/kg"}
    ]},
    {"smiles": "CO[C@H]1O[C@@]2(c3ccc(F)cc3)CCC[C@H]3CCCC[C@]31OO2", "values": [
      {"measurement": "IC50", "setting": "Plasmodium falciparum [1]", "result": 30, "unit": "nM"},
      {"measurement": "ED50", "setting": "Mus musculus [2]", "result": 10, "unit": "mg/kg"}
    ]},
    {"smiles": "C[C@H]1[C@H](OCc2ccc(C(=O)[O-])cc2)O[C@@H]2O[C@]3(C)CCC[C@H]4[C@H](C)CC[C@@H]1[C@@]24OO3.[Na+]", "values": [
      {"measurement": "half-life", "setting": "[3]", "result": 3, "unit": "h"}
    ]},
    {"smiles": "OC1CCC2(CC1)OOC1(O2)C2CC3CC(C2)CC1C3", "note": "(stereo unspecified)", "values": [
      {"measurement": "ED50", "setting": "Mus musculus [4]", "result": 3, "unit": "mg/kg"},
      {"measurement": "IC50", "setting": "Plasmodium falciparum [5]", "result": 10, "unit": "nM"}
    ]},
    {"smiles": "C1CCCCCC2(CCCCC1)OOCCCOO2", "values": [
      {"measurement": "IC50", "setting": "Plasmodium falciparum [1]", "result": 25, "unit": "nM"},
      {"measurement": "IC50", "setting": "Plasmodium falciparum [6]", "result": 3, "unit": "nM"},
      {"measurement": "ED50", "setting": "Mus musculus [2]", "result": 20, "unit": "mg/kg"}
    ]},
    {"smiles": "C[C@@H]1CC[C@H]2[C@@H](C)C(=O)O[C@@H]3O[C@@]4(C)CC[C@@H]1[C@]32OO4", "note": "[ARTEMISININ]", "values": [
      {"measurement": "IC50", "setting": "Plasmodium falciparum [7]", "result": 10, "unit": "nM"}
    ]},
    {"smiles": "CO[C@H]1O[C@@H](c2ccc(C(=O)O)cc2)C2CC[C@H]3CCCCC31OO2", "note": "(stereo partly specified)", "values": [
      {"measurement": "IC50", "setting": "Plasmodium falciparum [1]", "result": 30, "unit": "nM"},
      {"measurement": "ED50", "setting": "Mus musculus [2]", "result": 10, "unit": "mg/kg"}
    ]}
  ]
}
